Data published in paper PMC9901937, “Selective androgen receptor degrader (SARD) to overcome antiandrogen resistance in castration-resistant prostate cancer” (eLife, 2023).

Target: T1, androgen receptor (AR) (Homo sapiens, UniProt P10275)
T1 construct: AR from LNCaP cytosol (LBD site)
T1 sequence (P10275 1-920): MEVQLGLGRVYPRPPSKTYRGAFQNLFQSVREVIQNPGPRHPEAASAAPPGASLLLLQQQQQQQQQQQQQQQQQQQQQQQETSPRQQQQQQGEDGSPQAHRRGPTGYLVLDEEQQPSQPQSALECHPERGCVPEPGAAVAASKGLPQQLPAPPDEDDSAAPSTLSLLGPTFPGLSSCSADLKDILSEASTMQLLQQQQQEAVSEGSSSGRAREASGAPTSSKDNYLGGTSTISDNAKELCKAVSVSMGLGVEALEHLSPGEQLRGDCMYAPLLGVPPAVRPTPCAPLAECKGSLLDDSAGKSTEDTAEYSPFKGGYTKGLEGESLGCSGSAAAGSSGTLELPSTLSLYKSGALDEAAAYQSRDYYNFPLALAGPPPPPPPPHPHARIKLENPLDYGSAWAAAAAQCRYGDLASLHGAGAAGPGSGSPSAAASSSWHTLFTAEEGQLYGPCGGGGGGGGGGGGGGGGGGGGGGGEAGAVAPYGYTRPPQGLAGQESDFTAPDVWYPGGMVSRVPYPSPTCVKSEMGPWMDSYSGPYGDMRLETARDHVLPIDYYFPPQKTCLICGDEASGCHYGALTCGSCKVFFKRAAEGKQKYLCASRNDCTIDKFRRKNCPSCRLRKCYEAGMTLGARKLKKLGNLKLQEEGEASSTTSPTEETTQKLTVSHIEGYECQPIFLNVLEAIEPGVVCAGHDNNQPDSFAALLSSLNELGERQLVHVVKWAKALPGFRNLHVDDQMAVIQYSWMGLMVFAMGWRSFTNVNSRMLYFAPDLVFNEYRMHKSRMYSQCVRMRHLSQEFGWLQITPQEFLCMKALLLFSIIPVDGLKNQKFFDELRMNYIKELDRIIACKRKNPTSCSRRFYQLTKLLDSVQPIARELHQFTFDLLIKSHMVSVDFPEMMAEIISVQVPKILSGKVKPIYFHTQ
Assay: [3H]DHT competitive radioligand binding; also BLI and FP on AR LBD, and SPR (KD […]) and BLI on AR AF1 ([…] aa)

IC50: 63.3 nM
SMILES: Cc1noc(C)c1COc1ccc(C(=O)Nc2nc(-c3cccs3)cs2)cc1 [Z15, 4-[(3,5-Dimethyl-4-isoxazolyl)methoxy]-N-4-[(2-thienyl)-2-thiazole]-benzamide]
